Measurements reported in publication PMC12051768, “Reduced Renal Uptake of Various Radiopharmaceuticals with Sodium Paraaminohippurate Coadministration in a Rat Model” (Journal of Nuclear Medicine, 2025).
Entries after “also recorded” stand apart in the source; their conditions may differ. Read-outs that look alike come from different tables or passages of the source. One block for each compound: values may come before it.

Key:
[1] = PET quantification of kidney activity of [^68Ga]Ga-PSMA-11 with NaCl or paraaminohippurate; conditions: for relative change of kidney uptake with 200 mg/mL paraaminohippurate coinjection in comparison to 0.9% NaCl: negative = reduction; for effect of paraaminohippurate coinjection on renal uptake (in words): compared with NaCl coinjection
Experimental: PET experiments were conducted by CROmed Translational Research Center Ltd. Healthy adult male Wistar rats (3 animals per group) received an intraperitoneal priming dose of 1 mL of 0.9% NaCl, 1 mL of paraaminohippurate (200 mg/mL), or 1 mL of Arg-Lys (200 mg/mL), followed by 15–30 MBq of [^68Ga]Ga-PSMA-11 once intravenously in combination with 0.9% NaCl, paraaminohippurate, or Arg-Lys. PET examinations were conducted on an upgraded small-animal PET PRIMATE P4 scanner (Concorde Microsystems Inc.) at 5 min and 0.5, 1, 2, and 4 h after injection.

[2] = SPECT/CT quantification of kidney activity after coinjection of radiotracers with NaCl, Arg-Lys or paraaminohippurate; type: in vivo, Wistar rats; conditions: for relative change of kidney uptake with 200 mg/mL paraaminohippurate coinjection in comparison to 0.9% NaCl: imaging, negative = reduction; for effect of paraaminohippurate coinjection on renal uptake (in words): compared with NaCl coinjection
Experimental: Approximately 10 min later, 50–60 MBq of the ^177Lu-radiolabeled radiopharmaceuticals were injected intravenously in combination with 0.5 mL of 0.9% NaCl, 0.5 mL of paraaminohippurate (200 mg/mL), or 0.5 mL of Arg-Lys (200 mg/mL). At 0.5, 1, 4, 8, and 24 h after injection of the ^177Lu-radiolabeled compounds, SPECT/CT imaging was conducted under isoflurane anesthesia, using Mediso nano-SPECT/CT with a Silver upgrade system (Mediso Kft). VivoQuant version 1.22 software (VivoQuant) was used to determine the volume of interest and to quantify the activity in the kidneys.

[3] = parameters: species or system Wistar rats; conditions: male, Wistar, rat, in vivo
Experimental: (§1) Experiments were conducted at the Helmholtz-Zentrum Dresden-Rossendorf, Institute of Radiopharmaceutical Cancer Research (approved by Landesdirektion Dresden, number DD24.1-5131/450/16, July 6, 2018). Groups of 5 male Wistar rats each (average body weight, 210 g) were randomized for coinjection of 0.9% NaCl, Arg-Lys solution (200 mg/mL), or paraaminohippurate solution (200 mg/mL). The animals received an intraperitoneal priming dose of 1.0 mL of 0.9% NaCl, 1.0 mL of Arg-Lys, or 1.0 mL of paraaminohippurate solution 10 min before radiotracer injection. The injection solutions for the biodistribution were prepared as mix of [^177Lu]Lu-DOTATOC solution added to 1.5 mL of NaCl, Arg-Lys, or paraaminohippurate solution. The average injected activity ± SD of [^177Lu]Lu-DOTATOC was 4.32 ± 0.51 MBq/kg in 4 animals, whereas 1 rat per group received 149 ± 15 MBq/kg.
As for paraaminohippurate, 500 mg paraaminohippurate were administered per rat; […] thereof via intravenous injection; this by itself already results in an initial plasma concentration far exceeding the saturating 800 mg/L stated in ([16]). […]
Animals were killed 5 and 60 min after radiotracer injection; organs and tissues of interest were extracted, and their mass and activity were determined. Activities were counted in an automatic γ-counter, which was cross-calibrated with a dose calibrator by 3 standard samples. […]

[4] = parameters: method as in PMID 38637142; conditions: 12 patients treated with [^177Lu]Lu-DOTATOC; cited from earlier work
[5] = glomerular filtration and proximal tubular secretion; cited from earlier work
[6] = Tolerability of paraaminohippurate coadministration; type: in vivo; conditions: rats, 200 mg/mL solution, intraperitoneal priming plus intravenous coinjection
Experimental: as §1, with “MBq/kg. […]” for “MBq/kg.”
Approximately 10 min later, 50–60 MBq of the ^177Lu-radiolabeled radiopharmaceuticals were injected intravenously in combination with 0.5 mL of 0.9% NaCl, 0.5 mL of paraaminohippurate (200 mg/mL), or 0.5 mL of Arg-Lys (200 mg/mL). […] VivoQuant version 1.22 software (VivoQuant) was used to determine the volume of interest and to quantify the activity in the kidneys.

[7] = NaCl coinjection, AUC within first hour after injection
[8] = PAH coinjection in comparison to NaCl
[9] = PAH coinjection, AUC within first hour after injection
[10] = independent of the coinjected compound
[11] = paraaminohippurate vs NaCl coinjection
[12] = male, Wistar, rat, in vivo, %ID/g of kidney tissue

relative change of kidney uptake with 200 mg/mL paraaminohippurate coinjection in comparison to 0.9% NaCl ([1]; 5 min): −21% | relative change of kidney uptake with 200 mg/mL paraaminohippurate coinjection in comparison to 0.9% NaCl ([1]; 0.5 h): −23% | relative change of kidney uptake with 200 mg/mL paraaminohippurate coinjection in comparison to 0.9% NaCl ([1]; 1 h): −37% | relative change of kidney uptake with 200 mg/mL paraaminohippurate coinjection in comparison to 0.9% NaCl ([1]; 2 h): −5% | relative change of kidney uptake with 200 mg/mL paraaminohippurate coinjection in comparison to 0.9% NaCl ([1]; 4 h): +15% | kidney AUC0–1 h, NaCl [1, 7]: 45.9 %ID/g*h | kidney AUC0–1 h, Difference [1, 8]: −19% | kidney AUC0–1 h, PAH [1, 9]: 37.1 %ID/g*h | effect of paraaminohippurate coinjection on renal uptake (in words) ([1]; listed as PSMA-11): reduced | time of peak kidney activity after injection [1, 10]: 0.5 h | reduction of kidney AUC within the first hour after injection [1, 11]: 19%
Compound: O=C([O-])CN(CCN(CC(=O)[O-])Cc1cc(CCC(=O)NCCCCCC(=O)NCCCC[C@H](NC(=O)N[C@@H](CCC(=O)O)C(=O)O)C(=O)O)ccc1[O-])Cc1cc(CCC(=O)O)ccc1[O-].[68Ga+3].[OH3+] [[^68Ga]Ga-PSMA-11]
effect of paraaminohippurate coinjection on renal uptake (in words) [1]: To a lesser extent, paraaminohippurate-mediated nephroprotection was observed

%ID/g of kidney tissue ([2]; male, Wistar, rat, in vivo, 0.5 h): 13.3 (8.4) %ID/g | %ID/g of kidney tissue ([2]; male, Wistar, rat, in vivo, 8 h): 2.7 (0.0) %ID/g | tissue uptake at 1 h [2, 12]: 12.2 %ID/g | tissue uptake at 4 h [2, 12]: 2.7 %ID/g | tissue uptake at 24 h [2, 12]: 2.4 %ID/g | kidney AUC0–24 h, Difference ([2]; rat, in vivo): −51% | kidney AUC0–24 h, NaCl ([2]; rat, in vivo): 87.0 %ID/g*h | kidney AUC0–24 h, PAH ([2]; rat, in vivo): 43.0 %ID/g*h | time of peak / maximum kidney activity after injection ([2]; rat, in vivo): 0.5 h | kidney uptake ([3]; 5 min): 2.93 ± 0.42 %ID/g | kidney uptake ([3]; 1 h): 2.16 ± 0.31 %ID/g
Compound: C[C@@H](O)[C@@H]1NC(=O)[C@H](CCCCN)NC(=O)[C@@H](Cc2c[nH]c3ccccc23)NC(=O)[C@H](Cc2ccc(O)cc2)NC(=O)[C@@H](NC(=O)[C@@H](Cc2ccccc2)NC(=O)CN2CCN(CC(=O)O)CCN(CC(=O)O)CCN(CC(=O)O)CC2)CSSC[C@@H](C(=O)N[C@H](CO)[C@@H](C)O)NC1=O [[^177Lu]Lu-DOTATOC, metal not drawn]

Compound: O=C([O-])CC[C@H](NC(=O)N[C@@H](CCCCNC(=O)CCCCCCC(=O)NCCCC[C@@H](NC(=O)[C@@H](Cc1ccccc1)NC(=O)[C@@H](Cc1ccc(O)c(I)c1)NC(=O)CC[C@H](C(=O)[O-])N1CCN(CC(=O)[O-])CCN(CC(=O)[O-])CCN(CC(=O)[O-])CC1)C(=O)[O-])C(=O)[O-])C(=O)[O-].[177Lu+3].[H+].[H+].[H+].[H+].[H+] [[^177Lu]Lu-PSMA-I&T]
relative change of kidney uptake with 200 mg/mL paraaminohippurate coinjection in comparison to 0.9% NaCl ([2]; 0.5 h): −18% | relative change of kidney uptake with 200 mg/mL paraaminohippurate coinjection in comparison to 0.9% NaCl ([2]; 1 h): −22% | relative change of kidney uptake with 200 mg/mL paraaminohippurate coinjection in comparison to 0.9% NaCl ([2]; 4 h): −61% | kidney AUC0–1 h, NaCl [2, 7]: 64.7 %ID/g*h | kidney AUC0–1 h, Difference [2, 8]: −34% | kidney AUC0–1 h, PAH [2, 9]: 42.8 %ID/g*h | effect of paraaminohippurate coinjection on renal uptake (in words) [2]: To a lesser extent, paraaminohippurate-mediated nephroprotection was observed | effect of paraaminohippurate coinjection on renal uptake (in words) ([2]; listed as PSMA-I&T): reduced | time of peak / maximum kidney activity after injection [2, 10]: 0.5 h | reduction of kidney AUC within the first hour after injection [2, 11]: 34%

Compound: Nc1ccc(C(=O)NCC(=O)[O-])cc1.[Na+] [paraaminohippurate, sodium paraaminohippurate]
kidney uptake of the radiolabeled compound versus Arg-Lys solution [4]: comparable | tolerability in patients [4]: well tolerated | fraction filtered by the kidney from the plasma in a single pass-through [5]: more than 90% | tolerability / toxicity of coadministration [6]: well tolerated, and no immediate or delayed toxicity was observed | tolerability / toxicity of coadministration ([6]; listed as Paraaminohippurate): well tolerated, with no toxicity observed

Compound: [^177Lu]Lu-DOTATATE
relative change of kidney uptake with 200 mg/mL paraaminohippurate coinjection in comparison to 0.9% NaCl ([2]; 0.5 h): −80% | relative change of kidney uptake with 200 mg/mL paraaminohippurate coinjection in comparison to 0.9% NaCl ([2]; 1 h): −83% | relative change of kidney uptake with 200 mg/mL paraaminohippurate coinjection in comparison to 0.9% NaCl ([2]; 4 h): −56% | relative change of kidney uptake with 200 mg/mL paraaminohippurate coinjection in comparison to 0.9% NaCl ([2]; 8 h): −49% | relative change of kidney uptake with 200 mg/mL paraaminohippurate coinjection in comparison to 0.9% NaCl ([2]; 24 h): −46% | kidney AUC0–24 h, NaCl ([2]; NaCl coinjection, AUC within 24 h after injection): 113.7 %ID/g*h | kidney AUC0–24 h, Difference [2, 8]: −60% | kidney AUC0–24 h, PAH ([2]; PAH coinjection, AUC within 24 h after injection): 45.4 %ID/g*h | effect of paraaminohippurate coinjection on renal uptake (in words) [2]: significantly lower; also recorded: markedly diminished; also recorded: significantly reduced | time of peak / maximum kidney activity after injection [2, 10]: 0.5 h
